Measurements published in patent US10669261B2, “Heteroarylhydroxypyrimidinones as agonists of the APJ receptor” (BRISTOL-MYERS SQUIBB COMPANY, priority 2015, dated 2020).

Each compound was assayed against T1, human APJ receptor (Homo sapiens, UniProt P35414) (assay: Intracellular cAMP accumulation assay (APJ hcAMP, HTRF)). Conditions: Table 2; HEK293 cells stably expressing human APJ receptor; read-out: hAPJ cAMP EC50 Potency range.
T1 construct: expressed in transfected cells
T1 sequence (P35414 1-380): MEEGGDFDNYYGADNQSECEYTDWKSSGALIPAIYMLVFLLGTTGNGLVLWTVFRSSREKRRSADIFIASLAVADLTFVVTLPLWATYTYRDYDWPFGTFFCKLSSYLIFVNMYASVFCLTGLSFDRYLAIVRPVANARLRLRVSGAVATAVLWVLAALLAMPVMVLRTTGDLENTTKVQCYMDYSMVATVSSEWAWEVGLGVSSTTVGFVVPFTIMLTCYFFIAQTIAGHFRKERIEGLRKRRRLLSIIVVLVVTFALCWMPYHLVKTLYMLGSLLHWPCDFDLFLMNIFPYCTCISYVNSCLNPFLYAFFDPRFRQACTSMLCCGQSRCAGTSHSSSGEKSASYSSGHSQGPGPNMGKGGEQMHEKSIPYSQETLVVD
Format: cell-based
Procedure, shortened: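 HEK293 cells stably expressing the receptor (5,000/well) treated with compound plus […] and 2 μM forskolin for 30 min at room temperature; cAMP by HTRF against a cAMP standard curve. EC50 from variable-slope sigmoidal fit; Ymax as % of (Pyr1)apelin-13 inhibition.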

`CCCCc1nc(O)c(-c2nnc(Cc3noc4ccccc34)o2)c(=O)n1[C@H](C)c1ccccc1` [Example 86, 5-{5-[(1,2-benzoxazol-3-yl)methyl]-1,3,4-oxadiazol-2-yl}-2-butyl-6-hydroxy-3-[(1R)-1-phenylethyl]-3,4-dihydropyrimidin-4-one] and `CCCCc1nc(O)c(-c2nnc(Cc3noc4ccccc34)o2)c(=O)n1[C@H](CC)c1ccccc1` [Example 87, 5-{5-[(1,2-benzoxazol-3-yl)methyl]-1,3,4-oxadiazol-2-yl}-2-butyl-6-hydroxy-3-[(1R)-1-phenylpropyl]-3,4-dihydropyrimidin-4-one] fall in the same range of EC50: 0.01 to 10 nM for the first, 0.01 to 10 nM for the second.

Compared with `CCCCc1nc(O)c(-c2nnc(Cc3csc(C)n3)o2)c(=O)n1[C@H](CC)c1ccccc1` [Example 88], `CCCCc1nc(O)c(-c2nnc(Cc3csc(C)n3)o2)c(=O)n1[C@@H](CCC)c1ccccc1` [Example 106, 2-butyl-6-hydroxy-5-{5-[(2-methyl-1,3-thiazol-4-yl)methyl]-1,3,4-oxadiazol-2-yl}-3-[(1S)-1-phenylbutyl]-3,4-dihydropyrimidin-4-one] is higher in EC50: 0.01 to 10 nM for the first, 10 to 100 nM for the second.

First: CCCCc1nc(O)c(-c2nnc(Cc3ccc(Cl)cc3)o2)c(=O)n1[C@H](CC)c1ccccc1 [Example 89, 2-butyl-5-{5-[(4-chlorophenyl)methyl]-1,3,4-oxadiazol-2-yl}-6-hydroxy-3-[(1R)-1-phenylpropyl]-3,4-dihydropyrimidin-4-one]
Second: CCCCc1nc(O)c(-c2nnc(Cc3ccc(Cl)cn3)o2)c(=O)n1[C@@H](CCC)c1ccccc1 [Example 105, 2-butyl-5-{5-[(5-chloropyridin-2-yl)methyl]-1,3,4-oxadiazol-2-yl}-6-hydroxy-3-[(1S)-1-phenylbutyl]-3,4-dihydropyrimidin-4-one]
The EC50 of the first is higher: 10 to 100 nM for the first, 0.01 to 10 nM for the second.

First: CCCCc1nc(O)c(-c2nnc(Cc3noc4ccccc34)o2)c(=O)n1[C@H](COC)c1ccccc1 [Example 90, 5-{5-[(1,2-benzoxazol-3-yl)methyl]-1,3,4-oxadiazol-2-yl}-2-butyl-6-hydroxy-3-[(1S)-2-methoxy-1-phenylethyl]-3,4-dihydropyrimidin-4-one]
Second: CCCCc1nc(O)c(-c2nnc(Cc3noc4ccccc34)o2)c(=O)n1[C@@H](COC)c1ccccc1 [Example 91, 5-{5-[(1,2-benzoxazol-3-yl)methyl]-1,3,4-oxadiazol-2-yl}-2-butyl-6-hydroxy-3-[(1R)-2-methoxy-1-phenylethyl]-3,4-dihydropyrimidin-4-one]
The EC50 of the first is higher: 100 to 300 nM for the first, 10 to 100 nM for the second. The second is the more potent here.

Compared with `CCCCc1nc(O)c(-c2nnc(Cc3noc4ccccc34)o2)c(=O)n1[C@H]1CCCc2ccccc21` [Example 92, 5-{5-[(1,2-benzoxazol-3-yl)methyl]-1,3,4-oxadiazol-2-yl}-2-butyl-6-hydroxy-3-[(1S)-1,2,3,4-tetrahydronaphthalen-1-yl]-3,4-dihydropyrimidin-4-one], `CCCCc1nc(O)c(-c2nnc(Cc3noc4ccccc34)o2)c(=O)n1[C@H]1CCc2ccccc21` [Example 96, 5-{5-[(1,2-benzoxazol-3-yl)methyl]-1,3,4-oxadiazol-2-yl}-2-butyl-3-[(1S)-2,3-dihydro-1H-inden-1-yl]-6-hydroxy-3,4-dihydropyrimidin-4-one] is lower in EC50: 100 to 300 nM for the first, 10 to 100 nM for the second.

First: CCCCc1nc(O)c(-c2nnc(Cc3csc(C)n3)o2)c(=O)n1[C@H](COC)c1ccccc1 [Example 93, 2-butyl-6-hydroxy-3-[(1S)-2-methoxy-1-phenylethyl]-5-{5-[(2-methyl-1,3-thiazol-4-yl)methyl]-1,3,4-oxadiazol-2-yl}-3,4-dihydropyrimidin-4-one]
Second: CCCCc1nc(O)c(-c2nnc(Cc3csc(C)n3)o2)c(=O)n1[C@@H](COC)c1ccccc1 [Example 94, 2-butyl-6-hydroxy-3-[(1R)-2-methoxy-1-phenylethyl]-5-{5-[(2-methyl-1,3-thiazol-4-yl)methyl]-1,3,4-oxadiazol-2-yl}-3,4-dihydropyrimidin-4-one]
The EC50 of the first is higher: 100 to 300 nM for the first, 0.01 to 10 nM for the second.

`CCCCc1nc(O)c(-c2nnc(Cc3csc(C)n3)o2)c(=O)n1[C@@H](C)c1ccc(F)cc1` [Example 95, 2-butyl-3-[(1S)-1-(4-fluorophenyl)ethyl]-6-hydroxy-5-{5-[(2-methyl-1,3-thiazol-4-yl)methyl]-1,3,4-oxadiazol-2-yl}-3,4-dihydropyrimidin-4-one] and `CCCCc1nc(O)c(-c2nnc(Cc3csc(C)n3)o2)c(=O)n1[C@@H](C)c1cccc(C#N)c1` [Example 104, 3-[(1S)-1-(2-butyl-4-hydroxy-5-{5-[(2-methyl-1,3-thiazol-4-yl)methyl]-1,3,4-oxadiazol-2-yl}-6-oxo-1,6-dihydropyrimidin-1-yl)ethyl]benzonitrile] fall in the same range of EC50: 10 to 100 nM for the first, 10 to 100 nM for the second.

`CCCCc1nc(O)c(-c2nnc(Cc3csc(C)n3)o2)c(=O)n1[C@H]1CCc2ccccc21` [Example 97, 2-butyl-3-[(1S)-2,3-dihydro-1H-inden-1-yl]-6-hydroxy-5-{5-[(2-methyl-1,3-thiazol-4-yl)methyl]-1,3,4-oxadiazol-2-yl}-3,4-dihydropyrimidin-4-one] and `CCCCc1nc(O)c(-c2nnc(Cc3ccc(Cl)cn3)o2)c(=O)n1[C@H]1CCCc2ccccc21` [Example 100, 2-butyl-5-{5-[(5-chloropyridin-2-yl)methyl]-1,3,4-oxadiazol-2-yl}-6-hydroxy-3-[(1S)-1,2,3,4-tetrahydronaphthalen-1-yl]-3,4-dihydropyrimidin-4-one] fall in the same range of EC50: 0.01 to 10 nM for the first, 0.01 to 10 nM for the second.

First: CCCCc1nc(O)c(-c2nnc(Cc3ccc(Cl)cn3)o2)c(=O)n1[C@@H](C)c1ccc(F)cc1 [Example 98, 2-butyl-5-{5-[(5-chloropyridin-2-yl)methyl]-1,3,4-oxadiazol-2-yl}-3-[(1S)-1-(4-fluorophenyl)ethyl]-6-hydroxy-3,4-dihydropyrimidin-4-one]
Second: CCCCc1nc(O)c(-c2nnc(Cc3ccc(Cl)cn3)o2)c(=O)n1[C@H](COC)c1ccccc1 [Example 99]
The EC50 of the first is lower: 0.01 to 10 nM for the first, 10 to 100 nM for the second. The first is the more potent here.

Compared with `CCCCc1nc(O)c(-c2nnc(Cc3ccc(Cl)cn3)o2)c(=O)n1[C@@H](COC)c1ccccc1` [Example 101, 2-butyl-5-{5-[(5-chloropyridin-2-yl)methyl]-1,3,4-oxadiazol-2-yl}-6-hydroxy-3-[(1R)-2-methoxy-1-phenylethyl]-3,4-dihydropyrimidin-4-one], `CCCCc1nc(O)c(-c2nnc(Cc3noc4ccccc34)o2)c(=O)n1[C@@H](CCC)c1ccccc1` [Example 107, 5-{5-[(1,2-benzoxazol-3-yl)methyl]-1,3,4-oxadiazol-2-yl}-2-butyl-6-hydroxy-3-[(1S)-1-phenylbutyl]-3,4-dihydropyrimidin-4-one] is higher in EC50: 0.01 to 10 nM for the first, 10 to 100 nM for the second.

Compared with `CCCCc1nc(O)c(-c2nnc(Cc3noc4ccccc34)o2)c(=O)n1[C@@H](C)c1ccc(OC)cc1` [Example 102, 5-{5-[(1,2-benzoxazol-3-yl)methyl]-1,3,4-oxadiazol-2-yl}-2-butyl-6-hydroxy-3-[(1S)-1-(4-methoxyphenyl)ethyl]-3,4-dihydropyrimidin-4-one], `CCCCc1nc(O)c(-c2nnc(Cc3noc4ccccc34)o2)c(=O)n1[C@@H](C)c1cccc(C#N)c1` [Example 103, 3-[(1S)-1-(5-{5-[(1,2-benzoxazol-3-yl)methyl]-1,3,4-oxadiazol-2-yl}-2-butyl-4-hydroxy-6-oxo-1,6-dihydropyrimidin-1-yl)ethyl]benzonitrile] is lower in EC50: 100 to 300 nM for the first, 10 to 100 nM for the second.
